Data as given in the supplement of paper PMC11061612.

Legend:
Experiment in all cases: combination Emax (second highest fraction inhibited in the dose matrix, 72 h); higher = more inhibition; extreme values may be limits of the assay
[1] = test system: SW626 (Colorectal Carcinoma)
Procedure, shortened: (§1)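 After 24 hours at 37°C and 5% CO2 in 1536-well plates, cells in DMEM/F12 or RPMI plus 10% FBS received two-drug dose matrices for 72 hours. Viability came from CellTiter-Glo 2.0 luminescence and was scaled as inhibition, anchored at 0 by vehicle wells and at 1 by blank wells. Combination Emax is taken as the second-highest inhibition in the matrix, and Bliss excess as the observed combination effect less EA + EB − EA·EB, with EA and EB the single-agent effects.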

[2] = test system: SK-OV-3 (Ovarian Carcinoma)
Procedure, shortened: as §1

[3] = test system: 639-V (Bladder Carcinoma)
Procedure, shortened: as §1

[4] = test system: NCI-H69 (Small Cell Lung Carcinoma)
Procedure, shortened: as §1

[5] = test system: HARA (Squamous Cell Lung Carcinoma)
Procedure, shortened: as §1

[6] = test system: OVCAR-8 (Ovarian Carcinoma)
Procedure, shortened: as §1

[7] = test system: SW1271 (Small Cell Lung Carcinoma)
Procedure, shortened: as §1

[8] = test system: CTB-1 (B-Cell Non-Hodgkin's Lymphoma)
Procedure, shortened: as §1

[9] = test system: RKO (Colorectal Carcinoma)
Procedure, shortened: as §1

[10] = test system: HDLM-2 (Hodgkin's Lymphoma)
Procedure, shortened: as §1

[11] = test system: CAL-54 (Kidney Carcinoma)
Procedure, shortened: as §1

[12] = test system: 8305C (Thyroid Gland Carcinoma)
Procedure, shortened: as §1

[13] = test system: K5 (Thyroid Gland Carcinoma)
Procedure, shortened: as §1

[14] = test system: NCI-H747 (Colorectal Carcinoma)
Procedure, shortened: as §1

[15] = test system: LB771-HNC (Head and Neck Carcinoma)
Procedure, shortened: as §1

[16] = test system: LU-139 (Small Cell Lung Carcinoma)
Procedure, shortened: as §1

[17] = test system: MHH-PREB-1 (B-Cell Non-Hodgkin's Lymphoma)
Procedure, shortened: as §1

[18] = test system: OC-314 (Ovarian Carcinoma)
Procedure, shortened: as §1

[19] = test system: RPMI-6666 (Non-Cancerous)
Procedure, shortened: as §1

NB14 (Neuroblastoma) = test system: NB14 (Neuroblastoma)
Procedure, shortened: as §1

| SMILES | combination Emax [1] | combination Emax [2] | combination Emax [3] | combination Emax [4] | combination Emax [5] | combination Emax [6] | combination Emax [7] | combination Emax [8] | combination Emax [9] | combination Emax [10] | combination Emax [11] | combination Emax [12] | combination Emax [13] | combination Emax [14] | combination Emax [15] | combination Emax [16] | combination Emax [17] | combination Emax [18] | combination Emax [19] | combination Emax (NB14 (Neuroblastoma)) |
| --- | --- | --- | --- | --- | --- | --- | --- | --- | --- | --- | --- | --- | --- | --- | --- | --- | --- | --- | --- | --- |
| CCN(CCO)CCCOc1ccc2c(Nc3cc(CC(=O)Nc4cccc(F)c4)[nH]n3)ncnc2c1 [AZD2811] + C=CCn1c(=O)c2cnc(Nc3ccc(N4CCN(C)CC4)cc3)nc2n1-c1cccc(C(C)(C)O)n1 [AZD1775] (first compound max 1 µM, partner max 1 µM) | 0.427 | 0.434 | 0.265 | 0.602 | 0.788 | 0.791 | 0.586 | 0.876 | 0.655 | 0.746 | 0.622 | 0.89 | 0.507 | 0.414 | 0.359 | 0.567 | 0.718 | 0.839 | 0.902 | 1 |
| Cc1c2c(nn1C)CSCc1cc(n(C)n1)CSc1cc(c3ccccc3c1)OCCCc1c(C(=O)O)n(C)c3c-2c(Cl)ccc13 [AZD5991] + C[C@@H]1COCCN1C2=NC(=NC(=C2)C3(CC3)[S@](=N)(=O)C)C4=C5C=CNC5=NC=C4 [AZD6738] (first compound max 1 µM, 7x7, partner max 10 µM) | 0.632 | 0.556 | 0.452 | 0.335 | 0.776 | 0.783 | 0.604 | 0.785 | 0.85 | 0.992 | 0.706 | 0.593 | 0.574 | 0.322 | 0.806 | 0.446 | 0.729 | 0.832 | 0.889 | 0.989 |
| CC1(C)CCC(CN2CCN(c3ccc(C(=O)NS(=O)(=O)c4ccc(NCC5CCOCC5)c([N+](=O)[O-])c4)c(Oc4cnc5[nH]ccc5c4)c3)CC2)=C(c2ccc(Cl)cc2)C1 [Venetoclax] + Cn1cnc2c(F)c(Nc3ccc(Br)cc3Cl)c(C(=O)NOCCO)cc21 [Selumetinib] (first compound max 1 µM, 7x7, partner max 3 µM) | 0.507 | 0.137 | 0.27 | 0.302 | 0.617 | 0.153 | 0.432 | 0.105 | 0.441 | 0.296 | 0.205 | 0.397 | 0.742 | 0.717 | 0.132 | 0.307 | 0.147 | 0.134 | 0.959 | 0.974 |
| COc1cccc(OCCCN)c1-c1cc(Nc2cnc(C#N)cn2)n[nH]1 [Prexasertib] + O=C(c1cc(Cc2n[nH]c(=O)c3ccccc23)ccc1F)N1CCN(C(=O)C2CC2)CC1 [Olaparib] (first compound max 1 µM, 7x7, partner max 10 µM) | 0.64 | 0.713 | 0.868 | 0.696 | 0.964 | 0.966 | 0.686 | 0.876 | 0.874 | 0.626 | 0.792 | 0.785 | 0.634 | 0.422 | 0.568 | 0.442 | 0.866 | 0.971 | 0.959 | 0.986 |
| COc1cccc(OCCCN)c1-c1cc(Nc2cnc(C#N)cn2)n[nH]1 [Prexasertib] + Cc1cc2ncnn2cc1Nc1ncc2c(n1)n(C1CCOCC1)c(=O)n2C [AZD7648] (first compound max 1 µM, 7x7, partner max 10 µM) | 0.75 | 0.842 | 0.362 | 0.583 | 0.953 | 0.984 | 0.678 | 0.922 | 0.901 | 0.583 | 0.821 | 0.724 | 0.704 | 0.396 | 0.596 | 0.504 | 0.947 | 0.946 | 0.959 | 1 |
| CN(CCO)CC[C@H](CSc1ccccc1)Nc1ccc(S(=O)(=O)NC(=O)c2ccc(N3CCC([C@@H](O)c4ccccc4-c4ccc(Cl)cc4)CC3)cc2)cc1S(=O)(=O)C(F)(F)F [AZD4320] + Cn1cnc2c(F)c(Nc3ccc(Br)cc3Cl)c(C(=O)NOCCO)cc21 [Selumetinib] (first compound max 1 µM, 7x7, partner max 3 µM) | 0.837 | 0.258 | 0.978 | 0.885 | 0.219 | 0.498 | 0.534 | 0.591 | 0.754 | 0.847 | 0.311 | 0.71 | 0.679 | 0.793 | 0.255 | 0.928 | 0.164 | 0.351 | 0.992 | 1 |
| Cc1cc2ncnn2cc1Nc1ncc2c(n1)n(C1CCOCC1)c(=O)n2C [AZD7648] + O=C(c1cc(Cc2n[nH]c(=O)c3ccccc23)ccc1F)N1CCN(C(=O)C2CC2)CC1 [Olaparib] (first compound max 10 µM, 7x7, partner max 10 µM) | 0.13 | 0.173 | 0.182 | 0.337 | 0.314 | 0.344 | 0.24 | 0.331 | 0.242 | 0.155 | 0.218 | 0.31 | 0.421 | 0.241 | 0.148 | 0.131 | 0.232 | 0.24 | 0.584 | 0.508 |
| CN(C)CCCOc1ccc(-c2ccc3ncc4c(c3c2)n(C2CCOCC2)c(=O)n4C)cn1 [AZD0156] + C=CCn1c(=O)c2cnc(Nc3ccc(N4CCN(C)CC4)cc3)nc2n1-c1cccc(C(C)(C)O)n1 [AZD1775] (first compound max 1 µM, partner max 1 µM) | 0.508 | 0.54 | 0.204 | 0.312 | 0.809 | 0.8 | 0.476 | 0.898 | 0.719 | 0.721 | 0.642 | 0.924 | 0.424 | 0.414 | 0.557 | 0.59 | 0.844 | 0.515 | 0.923 | 1 |
| CC1(C)CCC(CN2CCN(c3ccc(C(=O)NS(=O)(=O)c4ccc(NCC5CCOCC5)c([N+](=O)[O-])c4)c(Oc4cnc5[nH]ccc5c4)c3)CC2)=C(c2ccc(Cl)cc2)C1 [Venetoclax] + C[C@@H](Nc1cc(F)cc(F)c1)c1cc(C(=O)N(C)C)cc2c(=O)cc(N3CCOCC3)oc12 [AZD8186] (first compound max 1 µM, 7x7, partner max 3 µM) | 0.127 | 0.433 | 0.321 | 0.697 | 0.607 | 0.139 | 0.151 | 0.288 | 0.113 | 0.436 | 0.533 | 0.441 | 0.735 | 0.344 | 0.283 | 0.279 | 0.21 | 0.242 | 0.988 | 1 |
| CN(C)CCCOc1ccc(-c2ccc3ncc4c(c3c2)n(C2CCOCC2)c(=O)n4C)cn1 [AZD0156] + C[C@@H]1COCCN1C2=NC(=NC(=C2)C3(CC3)[S@](=N)(=O)C)C4=C5C=CNC5=NC=C4 [AZD6738] (first compound max 1 µM, 7x7, partner max 10 µM) | 0.566 | 0.617 | 0.35 | 0.448 | 0.908 | 0.88 | 0.595 | 0.829 | 0.879 | 0.376 | 0.65 | 0.506 | 0.753 | 0.266 | 0.48 | 0.278 | 0.909 | 0.869 | 0.861 | 0.979 |
| Cc1c2c(nn1C)CSCc1cc(n(C)n1)CSc1cc(c3ccccc3c1)OCCCc1c(C(=O)O)n(C)c3c-2c(Cl)ccc13 [AZD5991] + C[C@@H](Nc1cc(F)cc(F)c1)c1cc(C(=O)N(C)C)cc2c(=O)cc(N3CCOCC3)oc12 [AZD8186] (first compound max 1 µM, 7x7, partner max 3 µM) | 0.223 | 0.424 | 0.421 | 0.305 | 0.412 | 0.268 | 0.207 | 0.384 | 0.277 | 0.996 | 0.602 | 0.588 | 0.362 | 0.517 | 0.486 | 0.174 | 0.214 | 0.297 | 0.717 | 0.898 |
| Cc1c2c(nn1C)CSCc1cc(n(C)n1)CSc1cc(c3ccccc3c1)OCCCc1c(C(=O)O)n(C)c3c-2c(Cl)ccc13 [AZD5991] + Cc1cc2ncnn2cc1Nc1ncc2c(n1)n(C1CCOCC1)c(=O)n2C [AZD7648] (first compound max 1 µM, 7x7, partner max 10 µM) | 0.224 | 0.483 | 0.298 | 0.283 | 0.394 | 0.225 | 0.305 | 0.472 | 0.364 | 0.996 | 0.367 | 0.432 | 0.351 | 0.392 | 0.571 | 0.243 | 0.175 | 0.297 | 0.541 | 0.72 |
